Reference: ChEMBL document CHEMBL4665836, “Overcoming β-Lactam resistance in Pseudomonas aeruginosa using non-canonical tobramycin-based antibiotic adjuvants” (2020)

Legend:
Assay type in all cases: functional
[1] = tested on: Pseudomonas aeruginosa; test: Potentiation of imipenem-induced antibacterial activity against carbapenem-resistant Pseudomonas aeruginosa 88949 clinical isolate assessed as imipenem MIC at 8 uM by checkerboard assay (reference value: 64 ug/ml)
[2] = tested on: Pseudomonas aeruginosa; test: Potentiation of imipenem-induced antibacterial activity against carbapenem and colistin-resistant Pseudomonas aeruginosa 101243 clinical isolate assessed as imipenem MIC at 8 uM by checkerboard assay (reference value: 8 ug/ml)
[3] = tested on: Pseudomonas aeruginosa; test: Potentiation of ceftazidime-induced antibacterial activity against carbapenem-resistant Pseudomonas aeruginosa PAO200 harboring mexAB-oprM efflux deficient mutant assessed as ceftazidime MIC at 8 uM by checkerboard assay (reference value: 1 ug/ml)
[4] = tested on: Pseudomonas aeruginosa; test: Potentiation of ceftazidime-induced antibacterial activity against carbapenem and colistin-resistant Pseudomonas aeruginosa 114228 clinical isolate assessed as ceftazidime MIC at 8 uM by checkerboard assay (reference value: 8 ug/ml)
[5] = tested on: Pseudomonas aeruginosa; test: Potentiation of aztreonam-induced antibacterial activity against carbapenem-resistant Pseudomonas aeruginosa PAO750 harboring mexAB-oprM/mexCD-oprJ/mexEF-oprN/mexJK/mexXY/opmH efflux deficient mutant assessed as aztreonam MIC at 8 uM by checkerboard assay (reference value: 0.5 ug/ml)
[6] = tested on: Pseudomonas aeruginosa; test: Potentiation of aztreonam-induced antibacterial activity against carbapenem-resistant Pseudomonas aeruginosa 107092 clinical isolate assessed as aztreonam MIC at 8 uM by checkerboard assay (reference value: 64 ug/ml)
[7] = tested on: Pseudomonas aeruginosa; test: Potentiation of aztreonam-induced antibacterial activity against carbapenem-resistant Pseudomonas aeruginosa 86052 clinical isolate assessed as aztreonam MIC at 8 uM by checkerboard assay (reference value: 64 ug/ml)
[8] = tested on: Pseudomonas aeruginosa; test: Potentiation of aztreonam-induced antibacterial activity against carbapenem and colistin-resistant Pseudomonas aeruginosa 114228 clinical isolate assessed as aztreonam MIC at 8 uM by checkerboard assay (reference value: 32 ug/ml)
[9] = tested on: Pseudomonas aeruginosa; test: Antibacterial activity against wild type Pseudomonas aeruginosa PAO1
[10] = tested on: Pseudomonas aeruginosa; test: Potentiation of piperacillin-induced antibacterial activity against wild type Pseudomonas aeruginosa PAO1 assessed as fold reduction in piperacillin MIC at 8 uM
[11] = tested on: Pseudomonas aeruginosa; test: Potentiation of ceftazidime-induced antibacterial activity against carbapenem-resistant Pseudomonas aeruginosa PAO200 harboring and mexAB-oprM efflux deficient mutant assessed as ceftazidime MIC at 8.7 uM by checkerboard assay (reference value: 1 ug/ml)
[12] = tested on: Pseudomonas aeruginosa; test: Potentiation of ceftazidime-induced antibacterial activity against carbapenem-resistant Pseudomonas aeruginosa 109084 clinical isolate assessed as ceftazidime MIC at 8.7 uM by checkerboard assay (reference value: 64 ug/ml)
[13] = tested on: Pseudomonas aeruginosa; test: Potentiation of ceftazidime-induced antibacterial activity against carbapenem-resistant Pseudomonas aeruginosa 107092 clinical isolate assessed as ceftazidime MIC at 8.7 uM by checkerboard assay (reference value: 128 ug/ml)
[14] = tested on: Pseudomonas aeruginosa; test: Potentiation of ceftazidime-induced antibacterial activity against carbapenem-resistant Pseudomonas aeruginosa 101885 clinical isolate assessed as ceftazidime MIC at 8.7 uM by checkerboard assay (reference value: 8 ug/ml)
[15] = tested on: Pseudomonas aeruginosa; test: Potentiation of ceftazidime-induced antibacterial activity against carbapenem-resistant Pseudomonas aeruginosa 100036 clinical isolate assessed as ceftazidime MIC at 8.7 uM by checkerboard assay (reference value: 8 ug/ml)
[16] = tested on: Pseudomonas aeruginosa; test: Potentiation of ceftazidime-induced antibacterial activity against carbapenem-resistant Pseudomonas aeruginosa 262-101856 clinical isolate assessed as ceftazidime MIC at 8.7 uM by checkerboard assay (reference value: 16 ug/ml)
[17] = tested on: Pseudomonas aeruginosa; test: Potentiation of ceftazidime-induced antibacterial activity against carbapenem-resistant Pseudomonas aeruginosa 260-97103 clinical isolate assessed as ceftazidime MIC at 8.7 uM by checkerboard assay (reference value: 32 ug/ml)
[18] = tested on: Pseudomonas aeruginosa; test: Potentiation of ceftazidime-induced antibacterial activity against wild-type Pseudomonas aeruginosa PAO1 assessed as ceftazidime MIC at 8.7 uM by checkerboard assay (reference value: 2 ug/ml)
[19] = tested on: Pseudomonas aeruginosa; test: Potentiation of aztreonam-induced antibacterial activity against carbapenem-resistant Pseudomonas aeruginosa PAO750 harboring and mexAB-oprM/mexCD-oprJ/mexEF-oprN/mexJK/mexXY/opmH efflux deficient mutant assessed as aztreonam MIC at 8.7 uM by checkerboard assay (reference value: 0.5 ug/ml)
[20] = tested on: Pseudomonas aeruginosa; test: Potentiation of aztreonam-induced antibacterial activity against carbapenem-resistant Pseudomonas aeruginosa PAO200 harboring and mexAB-oprM efflux deficient mutant assessed as aztreonam MIC at 8.7 uM by checkerboard assay (reference value: 0.25 ug/ml)
[21] = tested on: Pseudomonas aeruginosa; test: Potentiation of aztreonam-induced antibacterial activity against carbapenem-resistant Pseudomonas aeruginosa 109084 clinical isolate assessed as aztreonam MIC at 8.7 uM by checkerboard assay (reference value: 64 ug/ml)
[22] = tested on: Pseudomonas aeruginosa; test: Potentiation of aztreonam-induced antibacterial activity against carbapenem-resistant Pseudomonas aeruginosa 108590 clinical isolate assessed as aztreonam MIC at 8.7 uM by checkerboard assay (reference value: 32 ug/ml)
[23] = tested on: Pseudomonas aeruginosa; test: Potentiation of aztreonam-induced antibacterial activity against carbapenem-resistant Pseudomonas aeruginosa 107092 clinical isolate assessed as aztreonam MIC at 8.7 uM by checkerboard assay (reference value: 64 ug/ml)
[24] = tested on: Pseudomonas aeruginosa; test: Potentiation of aztreonam-induced antibacterial activity against carbapenem-resistant Pseudomonas aeruginosa 88949 clinical isolate assessed as aztreonam MIC at 8.7 uM by checkerboard assay (reference value: 32 ug/ml)
[25] = tested on: Pseudomonas aeruginosa; test: Potentiation of aztreonam-induced antibacterial activity against carbapenem-resistant Pseudomonas aeruginosa 86052 clinical isolate assessed as aztreonam MIC at 8.7 uM by checkerboard assay (reference value: 64 ug/ml)
[26] = tested on: Pseudomonas aeruginosa; test: Potentiation of aztreonam-induced antibacterial activity against carbapenem and colistin-resistant Pseudomonas aeruginosa 114228 clinical isolate assessed as aztreonam MIC at 8.7 uM by checkerboard assay (reference value: 32 ug/ml)
[27] = tested on: Pseudomonas aeruginosa; test: Potentiation of aztreonam-induced antibacterial activity against carbapenem and colistin-resistant Pseudomonas aeruginosa 101243 clinical isolate assessed as aztreonam MIC at 8.7 uM by checkerboard assay (reference value: 32 ug/ml)
[28] = tested on: Pseudomonas aeruginosa; test: Potentiation of aztreonam-induced antibacterial activity against carbapenem-resistant Pseudomonas aeruginosa 101885 clinical isolate assessed as aztreonam MIC at 8.7 uM by checkerboard assay (reference value: 16 ug/ml)
[29] = tested on: Pseudomonas aeruginosa; test: Potentiation of aztreonam-induced antibacterial activity against carbapenem-resistant Pseudomonas aeruginosa 262-101856 clinical isolate assessed as aztreonam MIC at 8.7 uM by checkerboard assay (reference value: 32 ug/ml)
[30] = tested on: Pseudomonas aeruginosa; test: Potentiation of aztreonam-induced antibacterial activity against carbapenem-resistant Pseudomonas aeruginosa 260-97103 clinical isolate assessed as aztreonam MIC at 8.7 uM by checkerboard assay (reference value: 64 ug/ml)
[31] = tested on: Pseudomonas aeruginosa; test: Potentiation of aztreonam-induced antibacterial activity against carbapenem-resistant Pseudomonas aeruginosa 259-96918 clinical isolate expressing metallo-beta-lactamase assessed as aztreonam MIC at 8.7 uM by checkerboard assay (reference value: 32 ug/ml)

`NC[C@H]1O[C@H](O[C@H]2[C@H](OCCCCCCCCN3CCCNCCNCCCNCC3)[C@@H](O)[C@H](N)C[C@@H]2N)[C@H](N)C[C@@H]1O.O=C(O)C(F)(F)F.O=C(O)C(F)(F)F.O=C(O)C(F)(F)F.O=C(O)C(F)(F)F.O=C(O)C(F)(F)F.O=C(O)C(F)(F)F.O=C(O)C(F)(F)F.O=C(O)C(F)(F)F` was tested. Which MIC [1] did it give?
The MIC was 64 µg/mL.

And the MIC [2]?
The MIC was 8 µg/mL.

What about the MIC [3] of the same compound?
Its MIC is 0.13 µg/mL.

What about the MIC [4] of the same compound?
Its MIC is 4 µg/mL.

And the MIC [5]?
Its MIC is 0.13 µg/mL.

And the MIC [6]?
The MIC was 32 µg/mL.

What about the MIC [7] of the same compound?
Its MIC is 64 µg/mL.

And the MIC [8]?
Its MIC is 16 µg/mL.

What about the MIC [9] of the same compound?
Its MIC is over 128 µg/mL.

What about the “fold change (FC)” value [10] of the same compound?
Its value is 2.

What does the source list for `Cl.Cl.Cl.Cl.Cl.Cl.NC[C@H]1O[C@H](O[C@H]2[C@H](OCCCCCCCCCCCCN3CCN(c4cc5c(cc4F)c(=O)c(C(=O)O)cn5C4CC4)CC3)[C@@H](O[C@H]3O[C@H](CO)[C@@H](O)[C@H](N)[C@H]3O)[C@H](N)C[C@@H]2N)[C@H](N)C[C@@H]1O`?
MIC [1]: 8 µg/mL; MIC [2]: 2 µg/mL; MIC [3]: 0.06 µg/mL; MIC [4]: 0.5 µg/mL; MIC [5]: 0.06 µg/mL; MIC [6]: 8 µg/mL; MIC [7]: 8 µg/mL; MIC [8]: 2 µg/mL; MIC [9]: 32 µg/mL; fold change (FC) [10]: 2

With `NC[C@H]1O[C@H](O[C@H]2[C@H](OCCCCc3cn(CCCCO[C@@H]4[C@@H](O[C@H]5O[C@H](CO)[C@@H](O)[C@H](N)[C@H]5O)[C@H](N)C[C@H](N)[C@H]4O[C@H]4O[C@H](CN)[C@@H](O)C[C@H]4N)nn3)[C@@H](O[C@H]3O[C@H](CO)[C@@H](O)[C@H](N)[C@H]3O)[C@H](N)C[C@@H]2N)[C@H](N)C[C@@H]1O.O=C(O)C(F)(F)F.O=C(O)C(F)(F)F.O=C(O)C(F)(F)F.O=C(O)C(F)(F)F.O=C(O)C(F)(F)F.O=C(O)C(F)(F)F.O=C(O)C(F)(F)F.O=C(O)C(F)(F)F.O=C(O)C(F)(F)F.O=C(O)C(F)(F)F` as the compound, how does the MIC [1] read?
Its MIC is 4 µg/mL.

And the MIC [2]?
The MIC was 8 µg/mL.

What about the MIC [3] of the same compound?
The MIC was 0.13 µg/mL.

And the MIC [4]?
The MIC was 1 µg/mL.

And the MIC [5]?
The MIC was 0.06 µg/mL.

What about the MIC [6] of the same compound?
The MIC was 16 µg/mL.

What about the MIC [7] of the same compound?
Its MIC is 8 µg/mL.

What about the MIC [8] of the same compound?
Its MIC is 4 µg/mL.

And the MIC [9]?
The MIC was over 128 µg/mL.

What about the “fold change (FC)” value [10] of the same compound?
The value was 2.

For `NC[C@H]1O[C@H](O[C@H]2[C@H](OCCCCCCCCN3CCCNCCNCCCNCC3)[C@@H](O[C@H]3O[C@H](CO)[C@@H](O)[C@H](N)[C@H]3O)[C@H](N)C[C@@H]2N)[C@H](N)C[C@@H]1O.O=C(O)C(F)(F)F.O=C(O)C(F)(F)F.O=C(O)C(F)(F)F.O=C(O)C(F)(F)F.O=C(O)C(F)(F)F.O=C(O)C(F)(F)F.O=C(O)C(F)(F)F.O=C(O)C(F)(F)F.O=C(O)C(F)(F)F`, which MIC [1] is on record?
Its MIC is 32 µg/mL.

And the MIC [2]?
The MIC was 8 µg/mL.

And the MIC [11]?
The MIC was 0.06 µg/mL.

What about the MIC [12] of the same compound?
Its MIC is 16 µg/mL.

And the MIC [13]?
The MIC was 32 µg/mL.

And the MIC [14]?
The MIC was 1 µg/mL.

And the MIC [15]?
The MIC was 2 µg/mL.

And the MIC [16]?
Its MIC is 4 µg/mL.

And the MIC [17]?
The MIC was 16 µg/mL.

What about the MIC [18] of the same compound?
Its MIC is 0.25 µg/mL.

What about the MIC [19] of the same compound?
Its MIC is 0.03 µg/mL.

And the MIC [20]?
Its MIC is 0.02 µg/mL.

And the MIC [21]?
The MIC was 8 µg/mL.

What about the MIC [22] of the same compound?
Its MIC is 8 µg/mL.

And the MIC [23]?
Its MIC is 16 µg/mL.

And the MIC [24]?
The MIC was 16 µg/mL.

What about the MIC [25] of the same compound?
Its MIC is 16 µg/mL.

What about the MIC [26] of the same compound?
The MIC was 4 µg/mL.

What about the MIC [27] of the same compound?
The MIC was 8 µg/mL.

What about the MIC [28] of the same compound?
Its MIC is 0.5 µg/mL.

What about the MIC [29] of the same compound?
The MIC was 8 µg/mL.

And the MIC [30]?
The MIC was 8 µg/mL.

What about the MIC [31] of the same compound?
Its MIC is 4 µg/mL.

And the MIC [9]?
The MIC was over 128 µg/mL.

What about the “fold change (FC)” value [10] of the same compound?
The value was 2.
